# Source: patent US11365199B2, “Pyrazole compounds as modulators of FSHR and uses thereof” (Merck Patent GmbH, priority 2013, dated 2022)
# Like-named read-outs stand apart in the source and are kept apart here.
# Target: T1, FSHR (Homo sapiens, UniProt P23945)
# T1 construct: expressed in transfected cells; host or cells: CHO (Cho-FSHR-LUC-1-1-43)
# T1 sequence (P23945 18-695): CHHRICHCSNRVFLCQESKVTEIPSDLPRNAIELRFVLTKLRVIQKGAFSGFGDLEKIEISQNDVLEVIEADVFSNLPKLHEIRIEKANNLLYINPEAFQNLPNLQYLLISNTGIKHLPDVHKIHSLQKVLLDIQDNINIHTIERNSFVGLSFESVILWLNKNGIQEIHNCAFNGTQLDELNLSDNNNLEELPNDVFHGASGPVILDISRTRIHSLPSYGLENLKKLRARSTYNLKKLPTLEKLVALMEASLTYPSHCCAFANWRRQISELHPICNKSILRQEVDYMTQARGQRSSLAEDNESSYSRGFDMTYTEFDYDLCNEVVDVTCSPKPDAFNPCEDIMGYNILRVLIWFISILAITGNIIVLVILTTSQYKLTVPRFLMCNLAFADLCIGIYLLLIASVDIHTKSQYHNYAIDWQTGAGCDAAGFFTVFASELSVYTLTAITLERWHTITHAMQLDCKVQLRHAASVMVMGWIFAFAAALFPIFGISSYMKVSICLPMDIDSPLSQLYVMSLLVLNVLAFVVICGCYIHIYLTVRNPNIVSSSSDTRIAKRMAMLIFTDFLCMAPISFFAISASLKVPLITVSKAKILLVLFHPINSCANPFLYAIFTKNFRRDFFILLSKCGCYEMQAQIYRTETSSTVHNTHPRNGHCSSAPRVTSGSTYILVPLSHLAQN
# Assay: EC50 of cyclic AMP production in CHO FSHR cells + EC20 FSH (Assay A)
# Assay type: cell-based
# Procedure, shortened: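 cAMP HTRF read-out (665 nm/620 nm ratio) after 1 h at 37° C of Cho-FSHR-LUC cells treated with serially diluted test compound plus EC20 FSH ([…]) and IBMX (final 200 μM). Responses given as percent of maximal FSH-standard effect.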
# [1] = CHO FSHR cells + EC20 FSH, cAMP HTRF, read-out: Assay A: EC50 of cyclic AMP production
Structure (SMILES),EC50 [1],EC50
"CCOC(=O)C1CCN(C(=O)c2nn(-c3ccsc3)c3c2COc2cc(OC)c(C=C(C)C)cc2-3)CC1 [Compound 14, 1-{7-Methoxy-8-(2-methyl-propenyl)-1-thiophen-3-yl-1,4-dihydro-chromeno[4,3-c]pyrazole-3-carbonyl]-piperidine-4-carboxylic acid ethyl ester]",1 to 5 µM,–
COc1cc2c(cc1C=C(C)C)-c1c(c(C(=O)N(C)CCN(C)C(C)=O)nn1-c1ccsc1)CO2 [Compound 34],< 0.1 µM,–
"COc1ccc2c(c1)OCc1c(C(=O)N(C)C(C)(C)C)nn(-c3ccsc3)c1-2 [Compound 133, 7-Methoxy-1-thiophen-3-yl-1,4-dihydro-chromeno[4,3-c]pyrazole-3-carboxylic Acid tert-butyl-methyl-amide]",–,1 to 5 µM
"COc1cc2c(cc1CC(C)C)-c1c(c(C(=O)N3CCOCC3(C)C)nn1-c1ccsc1)CO2 [Compound 77, (3,3-Dimethyl-morpholin-4-yl)-(8-isobutyl-7-methoxy-1-thiophen-3-yl-1,4-dihydro-chromeno[4,3-c]pyrazol-3-yl)-methanone]",< 0.1 µM,–
COc1cc2c(cc1C=C(C)C)-c1c(c(C(=O)N(C)CCCN3CCOC3=O)nn1-c1ccsc1)CO2 [Compound 33],0.1 to 1 µM,–
COc1cc2c(cc1OC(C)C)-c1c(c(C(=O)N(C)CCN(C)C(=O)C3CCC3)nn1-c1ccsc1)CO2 [Compound 29],< 0.1 µM,–
"COc1cc2c(cc1-c1c(C)cnn1C)-c1c(c(C(=O)N(C)C(C)(C)C)nn1-c1ccsc1)CO2 [Compound 76, 8-(2,4-Dimethyl-2H-pyrazol-3-yl)-7-methoxy-1-thiophen-3-yl-1,4-dihydro-chromeno[4,3-c]pyrazole-3-carboxylic acid tert-butyl-methyl-amide]",< 0.1 µM,–
"COc1cc2c(cc1C#N)-c1c(c(C(=O)N3CCOCC3(C)C)nn1-c1ccsc1)CO2 [Compound 86, 3-(3,3-Dimethyl-morpholine-4-carbonyl)-7-methoxy-1-thiophen-3-yl-1,4-dihydro-chromeno[4,3-c]pyrazole-8-carbonitrile]",< 0.1 µM,–
"COc1cc2c(cc1C=C(C)C)-c1c(c(C(=O)N(C)C(C)(C)C)nn1-c1nccs1)CO2 [Compound 89, 7-Methoxy-8-(2-methyl-propenyl)-1-thiazol-2-yl-1,4-dihydro-chromeno[4,3-c]pyrazole-3-carboxylic Acid tert-butyl-methyl-amide]",< 0.1 µM,–
"COc1cc2c(cc1-c1cn[nH]c1)-c1c(c(C(=O)N3CCOCC3(C)C)nn1-c1ccsc1)CO2 [Compound 80, (3,3-Dimethyl-morpholin-4-yl)-[7-methoxy-8-(1H-pyrazol-4-yl)-1-thiophen-3-yl-1,4-dihydro-chromeno[4,3-c]pyrazol-3-yl]-methanone]",< 0.1 µM,–
"COc1cc2c(cc1C=C(C)C)-c1c(c(C(=O)N(C)C(C)(C)C)nn1-c1cccs1)CO2 [Compound 90, 7-Methoxy-8-(2-methyl-propenyl)-1-thiophen-2-yl-1,4-dihydro-chromeno[4,3-c]pyrazole-3-carboxylic Acid tert-butyl-methyl-amide]",< 0.1 µM,–
[2H]C([2H])([2H])N(CCN1CCOC1=O)C(=O)c1nn(-c2ccsc2)c2c1COc1cc(OC)c(-c3cnn(C([2H])([2H])[2H])c3)cc1-2 [Compound 78],< 0.1 µM,–
"COc1cc2c(cc1C1=CCCO1)-c1c(c(C(=O)N(C)C(C)(C)C)nn1-c1ccsc1)CO2 [Compound 74, 8-(4,5-Dihydro-furan-2-yl)-7-methoxy-1-thiophen-3-yl-1,4-dihydro-chromeno[4,3-c]pyrazole-3-carboxylic acid tert-butyl-methyl-amide]",< 0.1 µM,–
"COc1cc2c(cc1-c1cnc(C)s1)-c1c(c(C(=O)N(C)C(C)(C)C)nn1-c1ccsc1)CO2 [Compound 73, 7-Methoxy-8-(2-methyl-thiazol-5-yl)-1-thiophen-3-yl-1,4-dihydro-chromeno[4,3-c]pyrazole-3-carboxylic acid tert-butyl-methyl-amide]",< 0.1 µM,–
"COc1cc2c(cc1C=C(C)C)-c1c(c(C(=O)N3CCC[C@H](C(=O)N4CCC4)CC3)nn1-c1ccsc1)CO2 [Compound 46, [(S)-4-(Azetidine-1-carbonyl)-azepan-1-yl]-[7-methoxy-8-(2-methyl-propenyl)-1-thiophen-3-yl-1,4-dihydro-chromeno[4,3-c]pyrazol-3-yl]-methanone]",1 to 5 µM,–

# More lines, main results first:
EC50 [1],Structure (SMILES),EC50
< 0.1 µM,"C=CCn1cc(-c2cc3c(cc2OC)OCc2c(C(=O)N4CCOCC4(C)C)nn(-c4ccsc4)c2-3)cn1 [Compound 207, [8-(1-Allyl-1H-pyrazol-4-yl)-7-methoxy-1-thiophen-3-yl-1,4-dihydro-chromeno[4,3-c]pyrazol-3-yl]-(3,3-dimethyl-morpholin-4-yl)-methanone]",–
1 to 5 µM,"COc1cc2c(cc1CC(C)C)-c1c(c(C(=O)NC3(CO)COC3)nn1-c1ccsc1)CO2 [Compound 141, 8-Isobutyl-7-methoxy-1-thiophen-3-yl-1,4-dihydro-chromeno[4,3-c]pyrazole-3-carboxylic acid (3-hydroxymethyl-oxetan-3-yl)-amide]",–
0.1 to 1 µM,[2H]C([2H])([2H])N(C(=O)c1nn(-c2ccsc2)c2c1COc1cc(OC)c(-c3cn(C([2H])([2H])[2H])nc3C)cc1-2)C1CCOC1 (stereo not shown) [Compound 143],–
> 5 µM,"COc1ccc2c(c1)OCc1c(C(=O)N3CCOCC3(C)C)nn(-c3ccsc3)c1-2 [Compound 128, (3,3-Dimethyl-morpholin-4-yl)-(7-methoxy-1-thiophen-3-yl-1,4-dihydro-chromeno[4,3-c]pyrazol-3-yl)-methanone]",–
1 to 5 µM,"COc1cc2c(cc1-c1ccn(C)c1)-c1c(c(C(=O)NCC3(O)COC3)nn1-c1ccsc1)CO2 [Compound 164, 7-Methoxy-8-(1-methyl-1H-pyrrol-3-yl)-1-thiophen-3-yl-1,4-dihydro-chromeno[4,3-c]pyrazole-3-carboxylic acid (3-hydroxy-oxetan-3-ylmethyl)-amide]",–
1 to 5 µM,[2H]C([2H])([2H])O[C@@H]1CC[C@H](N(C(=O)c2nn(-c3ccsc3)c3c2COc2cc(OC)c(-c4ccn(C)c4)cc2-3)C([2H])([2H])[2H])C1 [Compound 178],–
< 0.1 µM,"COc1cc2c(cc1-c1ccn(C)c1)-c1c(c(C(=O)O[C@H]3CC[C@H](N)C3)nn1-c1ccsc1)CO2 [Compound 181, 7-Methoxy-8-(1-methyl-1H-pyrrol-3-yl)-1-thiophen-3-yl-1,4-dihydro-chromeno[4,3-c]pyrazole-3-carboxylic Acid (1S,3S)-3-amino-cyclopentyl Ester]",–
0.1 to 1 µM,"COc1cc2c(cc1-c1cnn(CCN3CCCC3)c1)-c1c(c(C(=O)N3CCOCC3(C)C)nn1-c1ccsc1)CO2 [Compound 206, (3,3-Dimethyl-morpholin-4-yl)-{7-methoxy-8-[1-(2-pyrrolidin-1-yl-ethyl)-1H-pyrazol-4-yl]-1-thiophen-3-yl-1,4-dihydro-chromeno[4,3-c]pyrazol-3-yl}-methanone]",–
1 to 5 µM,"COc1cc2c(cc1-c1ccn(C)n1)-c1c(c(C(=O)N(C)C3COC3)nn1-c1ccsc1)CO2 [Compound 104, 7-Methoxy-8-(1-methyl-1H-pyrazol-3-yl)-1-thiophen-3-yl-1,4-dihydro-chromeno[4,3-c]pyrazole-3-carboxylic acid methyl-oxetan-3-yl-amide]",–
0.1 to 1 µM,"COc1cc2c(cc1-c1ccn(C)n1)-c1c(c(C(=O)NC(C)(CO)CO)nn1-c1ccsc1)CO2 [Compound 185, 7-Methoxy-8-(1-methyl-1H-pyrazol-3-yl)-1-thiophen-3-yl-1,4-dihydro-chromeno[4,3-c]pyrazole-3-carboxylic Acid (2-hydroxy-1-hydroxymethyl-1-methyl-ethyl)-amide]",–
1 to 5 µM,"COc1cc2c(cc1-c1c[nH]nc1C)-c1c(c(C(=O)NC3CCOC3)nn1-c1ccsc1)CO2 (stereo not shown) [Compound 135, 7-Methoxy-8-(3-methyl-1H-pyrazol-4-yl)-1-thiophen-3-yl-1,4-dihydro-chromeno[4,3-c]pyrazole-3-carboxylic acid (tetrahydro-furan-3-yl)-amide]",–
0.1 to 1 µM,"COc1cc2c(cc1-c1ccn(C)n1)-c1c(c(C(=O)N3CCN(C(=O)OC(C)(C)C)CC3(C)C)nn1-c1ccsc1)CO2 [Compound 156, 4-[7-Methoxy-8-(1-methyl-1H-pyrazol-3-yl)-1-thiophen-3-yl-1,4-dihydro-chromeno[4,3-c]pyrazole-3-carbonyl]-3,3-dimethyl-piperazine-1-carboxylic acid tert-butyl ester]",–
< 0.1 µM,"COc1cc2c(cc1-c1ccn(C)n1)-c1c(c(C(=O)N3CCOCC3C(F)(F)F)nn1-c1ccsc1)CO2 (stereo not shown) [Compound 144, [7-Methoxy-8-(1-methyl-1H-pyrazol-3-yl)-1-thiophen-3-yl-1,4-dihydro-chromeno[4,3-c]pyrazol-3-yl]-(3-trifluoromethyl-morpholin-4-yl)-methanone]",–
